Measured values reported in patent publication US20260265271A1, “Cereblon Ligands and Uses Thereof” (REGENTS OF THE UNIVERSITY OF MICHIGAN, priority 2022, published 2026).
Structures can show the parent of a compound that is named as a salt.

Each molecule was assayed against T1, IKZF2 (Homo sapiens, UniProt Q96SW2+Q9UKS7) (assay: IKZF2 HiBiT degradation assay (Jurkat-IKZF2-HiBiT)). Conditions: read-out: IKZF2 degradation DC50; Jurkat-IKZF2-HiBiT cells, 24 hours.
T1 construct: host or cells: Jurkat-IKZF2-HiBiT
Assay type: cell-based
Protocol: Degradation of IKZF2 protein was determined by IKZF2 HiBiT assay using the Jurkat-IKZF2-HiBiT (Promega) cell line. […] Compounds were serially diluted in culture medium, and 20 μl of the diluted compounds were added to the appropriate wells of the plate. After the addition of compounds, the cells were incubated at 37° C. in an atmosphere of 5% CO2 for 24 hours. At the end of treatment, 40 ul of Nano-Glo HiBiT Lytic Detection Reagent (Promega) was added to each well, and then the plates were incubated at room temperature for 10-20 minutes. The luminescent signal was measured using a CALRIOstar plate reader (BMG Labtech). The readings were normalized to the DMSO-treated cells and the IC50 was calculated by nonlinear regression (four parameters sigmoid fitted with variable slope, least squares fit, and no constraint) analysis using the GraphPad Prism 8 software.

T1 sequence (Q9UKS7 whole entry): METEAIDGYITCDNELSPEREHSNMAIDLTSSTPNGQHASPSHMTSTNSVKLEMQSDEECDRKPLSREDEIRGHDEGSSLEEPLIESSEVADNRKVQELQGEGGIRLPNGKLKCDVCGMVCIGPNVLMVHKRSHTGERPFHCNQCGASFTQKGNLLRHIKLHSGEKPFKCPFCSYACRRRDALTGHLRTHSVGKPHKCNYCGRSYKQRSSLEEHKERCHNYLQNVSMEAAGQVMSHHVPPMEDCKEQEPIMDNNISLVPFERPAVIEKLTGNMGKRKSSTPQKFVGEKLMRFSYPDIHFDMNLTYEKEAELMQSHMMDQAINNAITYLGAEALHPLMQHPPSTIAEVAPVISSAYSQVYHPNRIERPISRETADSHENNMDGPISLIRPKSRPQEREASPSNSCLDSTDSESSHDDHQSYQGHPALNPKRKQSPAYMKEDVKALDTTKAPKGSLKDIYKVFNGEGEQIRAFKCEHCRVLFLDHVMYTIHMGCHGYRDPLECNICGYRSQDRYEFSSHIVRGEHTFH
T1 sequence (Q96SW2 whole entry): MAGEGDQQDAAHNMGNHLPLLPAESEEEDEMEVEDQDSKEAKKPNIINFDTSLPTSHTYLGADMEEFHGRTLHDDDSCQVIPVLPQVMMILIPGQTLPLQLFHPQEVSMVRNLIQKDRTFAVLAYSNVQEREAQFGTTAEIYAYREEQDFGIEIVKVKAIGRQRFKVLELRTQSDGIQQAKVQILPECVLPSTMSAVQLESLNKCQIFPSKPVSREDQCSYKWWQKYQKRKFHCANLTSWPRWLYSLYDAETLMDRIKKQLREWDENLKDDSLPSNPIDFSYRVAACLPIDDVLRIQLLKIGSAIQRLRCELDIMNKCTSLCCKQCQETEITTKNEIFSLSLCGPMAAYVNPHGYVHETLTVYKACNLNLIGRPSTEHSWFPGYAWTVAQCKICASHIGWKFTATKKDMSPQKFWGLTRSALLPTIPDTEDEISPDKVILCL
T1 sequence (Q16531 2-1140 partner limits assumed): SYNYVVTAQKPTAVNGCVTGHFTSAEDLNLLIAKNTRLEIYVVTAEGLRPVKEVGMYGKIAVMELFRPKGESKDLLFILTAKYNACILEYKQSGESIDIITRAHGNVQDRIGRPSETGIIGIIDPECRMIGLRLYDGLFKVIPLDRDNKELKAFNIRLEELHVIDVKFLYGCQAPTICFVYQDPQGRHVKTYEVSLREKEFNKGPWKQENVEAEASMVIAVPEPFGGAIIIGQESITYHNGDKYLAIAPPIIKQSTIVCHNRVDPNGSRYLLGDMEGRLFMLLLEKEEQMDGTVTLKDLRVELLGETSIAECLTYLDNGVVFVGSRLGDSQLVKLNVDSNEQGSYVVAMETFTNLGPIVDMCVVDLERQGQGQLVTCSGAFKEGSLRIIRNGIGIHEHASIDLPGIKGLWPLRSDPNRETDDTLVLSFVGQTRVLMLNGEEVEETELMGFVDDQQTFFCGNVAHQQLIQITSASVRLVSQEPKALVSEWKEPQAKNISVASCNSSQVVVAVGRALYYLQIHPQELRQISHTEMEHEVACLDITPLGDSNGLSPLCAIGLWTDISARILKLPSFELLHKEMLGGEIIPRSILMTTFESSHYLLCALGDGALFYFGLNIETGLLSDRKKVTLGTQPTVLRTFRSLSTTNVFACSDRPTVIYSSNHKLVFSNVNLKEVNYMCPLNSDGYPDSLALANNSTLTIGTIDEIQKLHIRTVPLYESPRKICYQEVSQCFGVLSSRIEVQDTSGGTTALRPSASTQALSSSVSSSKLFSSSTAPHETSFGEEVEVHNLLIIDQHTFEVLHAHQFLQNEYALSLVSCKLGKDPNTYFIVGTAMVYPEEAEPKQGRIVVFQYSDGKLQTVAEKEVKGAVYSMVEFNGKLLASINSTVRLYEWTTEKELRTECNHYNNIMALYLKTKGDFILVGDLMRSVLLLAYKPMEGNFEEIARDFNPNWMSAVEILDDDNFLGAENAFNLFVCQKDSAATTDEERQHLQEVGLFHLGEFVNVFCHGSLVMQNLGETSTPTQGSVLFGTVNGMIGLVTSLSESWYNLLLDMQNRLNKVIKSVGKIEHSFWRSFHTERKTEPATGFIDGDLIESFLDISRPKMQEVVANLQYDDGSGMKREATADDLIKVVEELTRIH

Structure (SMILES)	DC50 [µM]
O=C1CCC(N2Cc3cc4c(cc3C2=O)OC[C@H]2CN(CC3CCCC3)CCN42)C(=O)N1 (stereo partly drawn) [Compound C30, 3-((R)-3-(cyclopentylmethyl)-8-oxo-1,2,3,4,4a,5,8,10-octahydro-9H-pyrazino[1′,2′:4,5][1,4]oxazino[2,3-f]isoindol-9-yl)piperidine-2,6-dione]	> 1
O=C1CC[C@H](N2Cc3cc4c(cc3C2=O)OC[C@@H]2CN(CC3CC5CCC3C5)CCN42)C(=O)N1 (stereo partly drawn) [Compound C36, (3S)-3-((4aS)-3-(bicyclo[2.2.1]heptan-2-ylmethyl)-8-oxo-1,2,3,4,4a,5,8,10-octahydro-9H-pyrazino[1′,2′:4,5][1,4]oxazino[2,3-f]isoindol-9-yl)piperidine-2,6-dione]	0.376
O=C1CC[C@H](N2Cc3cc4c(cc3C2=O)OC[C@@H]2CN(CC3CCC3)CCN42)C(=O)N1 [Compound C31, (S)-3-((S)-3-(cyclobutylmethyl)-8-oxo-1,2,3,4,4a,5,8,10-octahydro-9H-pyrazino[1′,2′:4,5][1,4]oxazino[2,3-f]isoindol-9-yl)piperidine-2,6-dione]	1.26
O=C1CC[C@H](N2Cc3cc4c(cc3C2=O)OC[C@@H]2CN(Cc3cccc(NC(=O)c5ccc(Cl)cc5)c3)CCN42)C(=O)N1 [Compound C24, 4-chloro-N-(3-(((S)-9-((S)-2,6-dioxopiperidin-3-yl)-8-oxo-1,2,4a,5,9,10-hexahydro-8H-pyrazino[1′,2′:4,5][1,4]oxazino[2,3-f]isoindol-3(4H)-yl)methyl)phenyl)benzamide]	0.025

Same assay, conditions: read-out: IKZF2 degradation Dmax (%)

Structure (SMILES)	Dmax [%]
O=C1CCC(N2Cc3cc4c(cc3C2=O)OC[C@H]2CN(CC3CCCC3)CCN42)C(=O)N1 (stereo partly drawn) [Compound C30, 3-((R)-3-(cyclopentylmethyl)-8-oxo-1,2,3,4,4a,5,8,10-octahydro-9H-pyrazino[1′,2′:4,5][1,4]oxazino[2,3-f]isoindol-9-yl)piperidine-2,6-dione]	0
O=C1CC[C@H](N2Cc3cc4c(cc3C2=O)OC[C@@H]2CN(CC3CC5CCC3C5)CCN42)C(=O)N1 (stereo partly drawn) [Compound C36, (3S)-3-((4aS)-3-(bicyclo[2.2.1]heptan-2-ylmethyl)-8-oxo-1,2,3,4,4a,5,8,10-octahydro-9H-pyrazino[1′,2′:4,5][1,4]oxazino[2,3-f]isoindol-9-yl)piperidine-2,6-dione]	68
O=C1CC[C@H](N2Cc3cc4c(cc3C2=O)OC[C@@H]2CN(CC3CCC3)CCN42)C(=O)N1 [Compound C31, (S)-3-((S)-3-(cyclobutylmethyl)-8-oxo-1,2,3,4,4a,5,8,10-octahydro-9H-pyrazino[1′,2′:4,5][1,4]oxazino[2,3-f]isoindol-9-yl)piperidine-2,6-dione]	58
O=C1CC[C@H](N2Cc3cc4c(cc3C2=O)OC[C@@H]2CN(Cc3cccc(NC(=O)c5ccc(Cl)cc5)c3)CCN42)C(=O)N1 [Compound C24, 4-chloro-N-(3-(((S)-9-((S)-2,6-dioxopiperidin-3-yl)-8-oxo-1,2,4a,5,9,10-hexahydro-8H-pyrazino[1′,2′:4,5][1,4]oxazino[2,3-f]isoindol-3(4H)-yl)methyl)phenyl)benzamide]	77

These molecules were tested against wild-type human CRBN protein (Homo sapiens, UniProt Q96SW2) (assay: biochemical). Conditions: not given.
Chain of wild-type human CRBN protein (Q96SW2 whole entry): as the sequence (Q96SW2 whole entry) above

IC50 [µM]	Structure (SMILES)
0.2	CC(=O)N1CCN2c3ccc4c(c3OC[C@@H]2C1)CN([C@H]1CCC(=O)NC1=O)C4=O [Compound C10, (S)-3-((S)-7-acetyl-1-oxo-1,3,5,5a,6,7,8,9-octahydro-2H-pyrazino[1′,2′:4,5][1,4]oxazino[2,3-e]isoindol-2-yl)piperidine-2,6-dione]
0.09	O=C1CC[C@H](N2Cc3c(ccc4c3OC[C@@H]3CN(Cc5ccc(F)cc5Cl)CCN43)C2=O)C(=O)N1 [Compound C13, (S)-3-((S)-7-(2-chloro-4-fluorobenzyl)-1-oxo-1,3,5,5a,6,7,8,9-octahydro-2H-pyrazino[1′,2′:4,5][1,4]oxazino[2,3-e]isoindol-2-yl)piperidine-2,6-dione]
0.47	CCN1CCN2c3ccc4c(c3OC[C@H]2C1)CN([C@H]1CCC(=O)NC1=O)C4=O [Compound C8, (S)-3-((R)-7-ethyl-1-oxo-1,3,5,5a,6,7,8,9-octahydro-2H-pyrazino[1′,2′:4,5][1,4]oxazino[2,3-e]isoindol-2-yl)piperidine-2,6-dione]
0.09	O=C1CC[C@H](N2Cc3c(ccc4c3OC[C@@H]3CN(Cc5ccc(C(F)F)cc5)CCN43)C2=O)C(=O)N1 [Compound C11, (S)-3-((S)-7-(4-(difluoromethyl)benzyl)-1-oxo-1,3,5,5a,6,7,8,9-octahydro-2H-pyrazino[1′,2′:4,5][1,4]oxazino[2,3-e]isoindol-2-yl)piperidine-2,6-dione]
0.24	O=C1CC[C@H](N2Cc3c(ccc4c3OC[C@@H]3CN(Cc5ccc(F)c(F)c5)CCN43)C2=O)C(=O)N1 [Compound C12, (S)-3-((S)-7-(3,4-difluorobenzyl)-1-oxo-1,3,5,5a,6,7,8,9-octahydro-2H-pyrazino[1′,2′:4,5][1,4]oxazino[2,3-e]isoindol-2-yl)piperidine-2,6-dione]

Further lines, the molecule ahead of its results:

Structure (SMILES)	IC50 [µM]
O=C1CC[C@H](NC(=O)c2ccc3c(c2)OC[C@H]2CNCCN32)C(=O)N1 [Compound B22, (R)—N—((S)-2,6-dioxopiperidin-3-yl)-1,2,3,4,4a,5-hexahydrobenzo[b]pyrazino[1,2-d][1,4]oxazine-8-carboxamide]	23
CN1CCN2c3ccc4c(c3N(C)C[C@@H]2C1)CN(C1CCC(=O)NC1=O)C4=O (stereo partly drawn) [Compound B12, 3-((S)-4,7-dimethyl-1-oxo-3,4,5,5a,6,7,8,9-octahydropyrazino[1,2-a]pyrrolo[3,4-f]quinoxalin-2(1H)-yl)piperidine-2,6-dione]	0.58
N[C@H]1C[C@H]2COc3cc4c(cc3N2C1)C(=O)N(C1CCC(=O)NC1=O)C4=O (some centres unmarked) [Compound B18]	0.22
O=C1CC[C@@H](N2Cc3cc4c(cc3C2=O)OC[C@@H]2CNCCN42)C(=O)N1 [Compound B2, (R)-3-((S)-8-oxo-1,2,3,4,4a,5,8,10-octahydro-9H-pyrazino[1′,2′:4,5][1,4]oxazino[2,3-f]isoindol-9-yl)piperidine-2,6-dione]	5.2
N[C@H]1C[C@H]2COc3cc4c(cc3N2C1)CN([C@H]1CCC(=O)NC1=O)C4=O [Compound B17, (S)-3-((2S,3aS)-2-amino-7-oxo-2,3,3a,4,7,9-hexahydro-1H,8H-pyrrolo[1′,2′:4,5][1,4]oxazino[2,3-f]isoindol-8-yl)piperidine-2,6-dione]	0.13
CC(C)(C)OC(=O)N1CCN2c3cc4c(cc3OC[C@@H]2C1)C(=O)N([C@@H]1CCC(=O)NC1=O)C4 [Compound B4, (R)-tert-butyl (4aS)-9-(2,6-dioxopiperidin-3-yl)-8-oxo-1,2,4a,5,9,10-hexahydro-8H-pyrazino[1′,2′:4,5][1,4]oxazino[2,3-f]isoindole-3(4H)-carboxylate]	3.5
CN(C(=O)c1ccc2c(c1)OC[C@@H]1CNCCN21)C1CCC(=O)NC1=O (stereo partly drawn) [Compound B24, (4aS)—N-(2,6-dioxopiperidin-3-yl)-N-methyl-1,2,3,4,4a,5-hexahydrobenzo[b]pyrazino[1,2-d][1,4]oxazine-8-carboxamide]	3.4
O=C1CC[C@H](NC(=O)c2ccc3c(c2)OC[C@@H]2CNCCN32)C(=O)N1 [Compound B23, (S)—N—((S)-2,6-dioxopiperidin-3-yl)-1,2,3,4,4a,5-hexahydrobenzo[b]pyrazino[1,2-d][1,4]oxazine-8-carboxamide]	25
O=C1CCC(N2Cc3cc4c(cc3C2=O)OC[C@H]2CNCCN42)C(=O)N1 (stereo partly drawn) [Compound B6, 3-((R)-8-oxo-1,2,3,4,4a,5,8,10-octahydro-9H-pyrazino[1′,2′:4,5][1,4]oxazino[2,3-f]isoindol-9-yl)piperidine-2,6-dione trifluoroacetate salt]	3.1
CN1CCN2c3cc4c(cc3N(C)C[C@@H]2C1)C(=O)N(C1CCC(=O)NC1=O)C4 (stereo partly drawn) [Compound B8, 3-((S)-3,6-dimethyl-8-oxo-2,3,4,4a,5,6,8,10-octahydropyrazino[1,2-a]pyrrolo[3,4-g]quinoxalin-9(1H)-yl)piperidine-2,6-dione]	0.94
O=C1CC[C@H](NC(=O)c2ccc3c(n2)OC[C@H]2CNCCN32)C(=O)N1 [Compound B19, (R)-N-((S)-2,6-dioxopiperidin-3-yl)-1,2,3,4,4a,5-hexahydropyrazino[1,2-d]pyrido [2,3-b][1,4]oxazine-8-carboxamide]	30.2
CN1C[C@@H]2CNCCN2c2cc3c(cc21)C(=O)N(C1CCC(=O)NC1=O)C3 (stereo partly drawn) [Compound B7, 3-((S)-6-methyl-8-oxo-2,3,4,4a,5,6,8,10-octahydropyrazino[1,2-a]pyrrolo[3,4-g]quinoxalin-9(1H)-yl)piperidine-2,6-dione trifluoroacetate salt]	0.74
O=C1CCC(N2Cc3cc4c(cc3C2=O)OC[C@@H]2CNCCN42)C(=O)N1 (stereo partly drawn) [Compound B1, 3-((S)-8-oxo-1,2,3,4,4a,5,8,10-octahydro-9H-pyrazino[1′,2′:4,5][1,4]oxazino[2,3-f]isoindol-9-yl)piperidine-2,6-dione hydrochloride salt]	2.1
CN(C(=O)c1ccc2c(n1)OC[C@H]1CNCCN21)C1CCC(=O)NC1=O (stereo partly drawn) [Compound B20, (4aR)-N-(2,6-dioxopiperidin-3-yl)-N-methyl-1,2,3,4,4a,5-hexahydropyrazino[1,2-d]pyrido[2,3-b][1,4]oxazine-8-carboxamide]	17.5
CN1CCN2c3cc4c(cc3OC[C@@H]2C1)C(=O)N(C1CCC(=O)NC1=O)C4 (stereo partly drawn) [Compound B5, 3-((S)-3-methyl-8-oxo-1,2,3,4,4a,5,8,10-octahydro-9H-pyrazino[1′,2′:4,5][1,4]oxazino[2,3-f]isoindol-9-yl)piperidine-2,6-dione]	0.92
CN(C(=O)c1ccc2c(c1)OC[C@H]1CNCCN21)C1CCC(=O)NC1=O (stereo partly drawn) [Compound B21, (4aR)—N-(2,6-dioxopiperidin-3-yl)-N-methyl-1,2,3,4,4a,5-hexahydrobenzo[b]pyrazino[1,2-d][1,4]oxazine-8-carboxamide]	4.6
CC(C)(C)OC(=O)N1CCN2c3cc4c(cc3OC[C@@H]2C1)C(=O)N([C@H]1CCC(=O)NC1=O)C4 [Compound B3, (S)-tert-butyl (4aS)-9-(2,6-dioxopiperidin-3-yl)-8-oxo-1,2,4a,5,9,10-hexahydro-8H-pyrazino[1′,2′:4,5][1,4]oxazino[2,3-f]isoindole-3(4H)-carboxylate]	1.7
O=C1CCC(N2Cc3c(ccc4c3N3CCNC[C@H]3CO4)C2=O)C(=O)N1 (stereo in doubt) [Compound B16, (R)-3-((S)-3-oxo-1,3,7,7a,8,9,10,11-octahydro-2H-pyrazino[1′,2′:4,5][1,4]oxazino[3,2-e]isoindol-2-yl)piperidine-2,6-dione]	1.4
CN1CCN2c3cc4c(cc3NC(=O)[C@@H]2C1)C(=O)N(C1CCC(=O)NC1=O)C4 (stereo partly drawn) [Compound B10, (4aS)-9-(2,6-dioxopiperidin-3-yl)-3-methyl-2,3,4,4a,9,10-hexahydropyrazino[1,2-a]pyrrolo[3,4-g]quinoxaline-5,8(1H,6H)-dione]	0.6
